# “And” between values parts separate entries of the source, which are not always exact repeats. Identical values can stand only once. Like-named read-outs stand apart in the source and are kept apart here.
# Experiments:
# M. tuberculosis H37Rv [1] = assay: microbe, parasite or virus in culture; assay type: cell-based, Mycobacterium tuberculosis; conditions: for MIC90 / IC90 / MIC: Mycobacterium tuberculosis, H37RV; for MIC90: read-out: MIC (MIC90); for IC90: read-out: TB-IC90_OD GEOM_MEAN
# [2] = for Cli mouse / scaled Clpre: female, CD1, mouse, pH 7.4; for CL mouse MEAN / in vitro mouse Clint: microsomes
# [3] = tested on: Madin Darby Canine Kidney (MDCK); conditions: for P-glycoprotein (P-gp) efflux (in words) / permeability (in words): MDCK-MDR1; for P-gp Efflux B→ A/A → B: dog, MDCK
# Vero cells [4] = assay: cells; conditions: Chlorocebus sabaeus, read-out: VERO IC50
# Protocol: (§1) Compounds were solubilized in DMSO and assayed as a 10-point 3-fold serial dilution. Compounds were incubated with cells for 2 days at 37 °C, 5% CO2. CellTiter-Glo Reagent (Promega) was added and relative luminescent units (RLU) measured.
# physchem [5] = assay: physchem
# in vitro = conditions: dog, MDCK-MDR1
# physchem [6] = assay: physchem; remark: listed apart in the source
# Protocol: Samples are stirred for 20 h and filtered through a 0.7 μm GF filter. The filtrate was analyzed by HPLC assay for concentration against DMSO standard curve.[40]
# physchem [7] = assay: physchem; remark: listed apart in the source
# Vero cells [8] = conditions: read-out: VERO IC50
# Protocol: as §1
# physchem [9] = conditions: aqueous with cosolvent or surfactant or cyclodextrin, kinetic from dmso stock
# in vivo = conditions: female, C57 Black, mouse
# Protocol: (§2) Test compound was dosed as a bolus solution intravenously at 3 mg of free base/kilogram (dose volume 5 mL/kg; dose vehicle Saline or 10% DMSO; 40% PEG400; 50% saline) to female C57 Black (n = 3) or dosed orally by gavage as a solution at 10 mg of free base/kilogram (dose volume 10 mL/kg; dose vehicle 10% DMSO; 40% PEG400; 50% distilled water) to female C57 Black (n = 3/dose level). Blood samples were taken from each mouse tail vein at predetermined time points postdose, mixed with two volumes of distilled water, and stored frozen until UPLC/MS/MS analysis. Pharmacokinetic parameters were derived from the blood concentration time curve using PK Solutions software v 2.0 (Summit Research Services, USA).
# [10] = female, C57 Black, mouse, in vivo, iv, 3 mg/kg
# Protocol: as §2
# M. tuberculosis H37Rv [11] = assay type: cell-based, Mycobacterium tuberculosis
# M. tuberculosis H37Rv [12] = tested on: M. tuberculosis H37Rv; design: species or system Mycobacterium tuberculosis; conditions: in vivo
SMILES,MIC90 (M. tuberculosis H37Rv [1]) [µM],IC90 (M. tuberculosis H37Rv [1]) [µM],Cli mouse [2] [mL.min^–1.g^–1],CL mouse MEAN [2] [mL/min/g],IC50 (Vero cells [4]) [µM],chromatographic logD (physchem [5]),solubility kinetic (physchem [9]) [µM],also measured
"NC(=O)c1sc(CN2CCOCC2)cc1OCCc1ccccc1 [Compound 18, 5-(Morpholinomethyl)-3-(2-phenylethoxy)thiophene-2-carboxamide]",> 20,> 20,3,3.219,> 100,1.71,,antitubercular whole cell activity (in words) (M. tuberculosis H37Rv [1]): not active; P-glycoprotein (P-gp) efflux (in words) [3]: no likely P-glycoprotein (P-gp) efflux issues; permeability (in words) [3]: good permeability; P-gp Efflux B→ A/A → B [3]: 0.8; Papp A→B (in vitro): 62 ×10⁻⁶ cm/s; Papp B→A (in vitro): 53 ×10⁻⁶ cm/s; solubility (physchem [6]; pH 2): 700 µg/mL; solubility (physchem [6]; pH 7.4): 300 µg/mL; solubility (physchem [7]; pH 2.4): 1700 µg/mL
"NC(=O)c1sc(-c2ccncc2)cc1OCCc1ccccc1 [Compound 35, 3-(2-Phenylethoxy)-5-(4-pyridyl)thiophene-2-carboxamide]",5.3,5.08,41,40.84,5.9,1.9,219,MIC (M. tuberculosis H37Rv [1]; read-out: MIC WT): 5.8 µM; IC50 (Vero cells [8]): 5.62 µM
"CON(C)C(=O)c1sc(N2CCOCC2)cc1OCCc1ccccc1 [Compound 25, N-Methoxy-N-methyl-5-morpholino-3-phenethoxythiophene-2-carboxamide]",1.8,1.7,0.5,0.5,,,,"MIC (M. tuberculosis H37Rv [1]; read-out: H37Rv MIC): 0.64 µg/mL; in vitro mouse Clint [2]: <0.5 mL/min/g; AUC (in vivo; po, 10 mg/kg): 86.7 ng·h/mL"
"NC(=O)c1sc(-n2nccn2)cc1OCCc1ccccc1 [Compound 34, 3-(2-Phenylethoxy)-5-(triazol-2-yl)thiophene-2-carboxamide]",2,2.05,30,30.46,> 100,2.41,78.5,
"CC1(COc2cc(N3CCOCC3)sc2C(N)=O)COC1 [Compound 46, 3-((3-Methyloxetan-3-yl)methoxy)-5-morpholinothiophene-2-carboxamide]",> 20,,2.1,2.051,> 100,0.707,,"antitubercular whole cell activity (in words) (M. tuberculosis H37Rv [1]): no measurable MIC activity; MIC (M. tuberculosis H37Rv [1]; read-out: H37Rv MIC): > 6.2 µg/mL; scaled Clpre [2]: 56 mL/min/kg; in vitro mouse Clint [2]: 2.1 mL/min/g; CLB [10]: 31 mL/min/kg; T1/2 [10]: 42 min; P-glycoprotein (P-gp) efflux (in words) [3]: no likely P-glycoprotein (P-gp) efflux issues; permeability (in words) [3]: good permeability; P-gp Efflux B→ A/A → B [3]: 2; bioavailability (in vivo; po, 10 mg/kg): 38%; Papp A→B (in vitro): 19 ×10⁻⁶ cm/s; Papp B→A (in vitro): 35 ×10⁻⁶ cm/s"
"NC(=O)c1sc(N2CCOCC2)cc1OCCc1cccc(F)c1 [Compound 39, 3-[2-(3-Fluorophenyl)ethoxy]-5-morpholinothiophene-2-carboxamide]",0.43,0.469,18,17.63,> 100,2.05,219,MIC (M. tuberculosis H37Rv [1]; read-out: MIC WT): 0.53 µM
"NC(=O)c1cc(N2CCOCC2)ccc1OCCc1ccccc1 [Compound 55, 5-Morpholino-2-(2-phenylethoxy)benzamide]",5.7,,3.8,3.79,> 100,1.9,,"MIC (M. tuberculosis H37Rv [1]; read-out: H37Rv MIC): 1.9 µg/mL; scaled Clpre [2]: 68 mL/min/kg; in vitro mouse Clint [2]: 4 mL/min/g; CLB [10]: 32 mL/min/kg; T1/2 [10]: 72 min; AUC (in vivo; iv, 3 mg/kg): 1590 ng·h/mL; bioavailability (in vivo; po, 10 mg/kg): 5%; solubility (physchem [6]; pH 2): 600 µg/mL; solubility (physchem [6]; pH 6): 300 µg/mL; solubility (physchem [6]; pH 7.4): 300 µg/mL; solubility (physchem [7]; pH 2.4): 1300 µg/mL; solubility (physchem [7]; pH 6): 300 µg/mL"
"c1ccc(CCOc2csc(N3CCOCC3)c2)cc1 [Compound 19, 4-[4-(2-Phenylethoxy)-2-thienyl]morpholine]",> 20,> 20,37,37.17,68,1.96,174,IC50 (Vero cells [8]): 61.7 µM
"NC(=O)c1sc(N2CCCCC2)cc1OCCc1ccccc1 [Compound 28, 3-(2-Phenylethoxy)-5-(1-piperidyl)thiophene-2-carboxamide]",8.9,11,42,42.23,> 100,3.04,78.5,
"O=C(NC1CCC1)c1sc(N2CCOCC2)cc1OCCc1ccccc1 [Compound 24, N-Cyclobutyl-5-morpholino-3-phenethoxythiophene-2-carboxamide]",> 20,> 20,0.5,0.5,24,3.21,175,IC50 (Vero cells [8]): 24 µM
"CC(=O)c1sc(N2CCOCC2)cc1OCCc1ccccc1 [Compound 20, 1-[5-Morpholino-3-(2-phenylethoxy)-2-thienyl]ethanone]",0.42,0.424,41,41.42,84,2.78,,IC50 (Vero cells [8]): 82.2 µM; solubility (physchem [6]; pH 2): 600 µg/mL; solubility (physchem [6]; pH 7.4): 30 µg/mL; solubility (physchem [7]; pH 2.4): 400 µg/mL
CCc1nc2ccc(Cl)cn2c1C(=O)NCc1ccc(N2CCC(c3ccc(OC(F)(F)F)cc3)CC2)cc1 [Compound Q203],,,,,,,,ATP levels versus growth (OD590) (M. tuberculosis H37Rv [11]): depletion of ATP occurred at lower concentrations than required to inhibit growth
"CCOC(=O)NC(=O)c1sc(N2CCOCC2)cc1OCCc1ccccc1 [Compound 26, Ethyl N-[5-Morpholino-3-(2-phenylethoxy)thiophene-2-carbonyl]carbamate]",> 20,> 20,1,0.9584,> 100,2.73,65.8,antitubercular whole cell activity (in words) (M. tuberculosis H37Rv [1]): inactive
COc1c(N2C[C@@H]3CCCN[C@@H]3C2)c(F)cc2c(=O)c(C(=O)O)cn(C3CC3)c12 [Moxifloxacin],,,,,,,,"log CFUs per mouse (lungs), individual mice (M. tuberculosis H37Rv [12]): 3.8 log CFU (2×) and 4.4 log CFU and 4.0 log CFU and 3.9 log CFU; log CFUs per mouse (lungs), mean (M. tuberculosis H37Rv [12]): 4.0 log CFU; reduction of CFU lung number with respect to untreated mice (M. tuberculosis H37Rv [12]): 2.8 logs"
CO[C@H]1/C=C/O[C@@]2(C)Oc3c(C)c(O)c4c(O)c(c(/C=N/N5CCN(C)CC5)c(O)c4c3C2=O)NC(=O)/C(C)=C\C=C\[C@H](C)[C@H](O)[C@@H](C)[C@@H](O)[C@@H](C)[C@H](OC(C)=O)[C@@H]1C [rifampicin],,,,,,,,ATP levels versus growth (OD590) (M. tuberculosis H37Rv [11]): correlated with growth
"NC(=O)c1sc(-n2cnc3ccccc32)cc1OCCc1ccccc1 [Compound 33, 5-(Benzimidazol-1-yl)-3-(2-phenylethoxy)thiophene-2-carboxamide]",> 20,> 20,28,28.23,> 100,2.39,27.5,antitubercular whole cell activity (in words) (M. tuberculosis H37Rv [1]): inactive

# Reference: publication PMC6089501 (Journal of Medicinal Chemistry, 2018)
